Test: Antagonism of calmodulin dependent cAMP Phosphodiesterase
Format: functional

Row | Structure (SMILES) | IC50 [nM]
1 | CC/C(=C(\c1ccc(I)cc1)c1ccc(OCCN2CCCC2)cc1)c1ccc(I)cc1 | 5000
2 | CC/C(=C(\c1ccc(I)cc1)c1ccc(OCCN2CCCC2)cc1)c1ccc(N)cc1 | 2600
3 | CC/C(=C(/c1ccc(I)cc1)c1ccc(OCCN2CCCC2)cc1)c1ccc(O)cc1 | 2200

Now those with a lower IC50, led by results:

Row | IC50 [nM] | Structure (SMILES)
4 | 1800 | CC/C(=C(\c1ccc(I)cc1)c1ccc(OCCN2CCCC2)cc1)c1ccc(O)cc1
5 | 1500 | CC/C(=C(\c1ccc(I)cc1)c1ccc(OCCN2CCCC2)cc1)c1ccccc1 [IDOXIFENE]

— ChEMBL document CHEMBL1128874 (Bioorg Med Chem Lett, 1995)
